Data taken from patent publication US7414048B2, “4,5-dihydro-isoxazole derivatives and their pharmaceutical use” (Janssen Pharmaceutica, N.V., priority 1998, dated 2008).

Test system: T cell blast formation in human blood
Assay: In vitro inhibition of T cell blast formation in human blood (human whole blood blast formation, PHA stimulated, flow cytometry)
Assay type: cell-based
Settings: 72 hours, mean where multiple measurements
Protocol: Cells are collected after a 72 hours culture period at 37° C., supernatant is removed by centrifugation and red blood cells are lysed by a hypotonic buffer. The remaining white blood cells are collected in PBS containing propidium iodide. The blast formation is analyzed using a benchtop flow cytometer (Cytoron, Ortho) equipped with an argon-ion laser. […] When multiple measurements were performed, a mean value was calculated for the percentage inhibition of T cell blast formation.

[1] = Test Dose 3 × 10^−7 (unit not given)
[2] = Test Dose 1 × 10^−6 (unit not given)
[3] = Test Dose 1 × 10^−7 (unit not given)
[4] = Test Dose 1 × 10^−5 (unit not given)

SMILES | % Inhibition of T cell blast formation [2] [%] | also measured
O=C(NCc1ccc2c(c1)OCO2)c1ccc(NC(=O)C2CC(c3cccnc3)=NO2)cc1 (stereo not shown) [Compound 295] | – | % Inhibition of T cell blast formation [1]: 35%
Nc1ccc(C(=O)c2ccc(NC(=O)C3CC(c4cccnc4)=NO3)cc2)cc1 (stereo not shown) [Compound 17] | – | % Inhibition of T cell blast formation [1]: 53%
Cn1ncc2ccc(CNC(c3ccccc3)c3ccc(NC(=O)C4CC(c5cccnc5)=NO4)cc3)cc21 (stereo not shown) [Compound 94] | 44 | –
O=C(Nc1ccc(C(=NO)c2ccccc2)cc1)C1CC(c2cccnc2)=NO1 (single isomer, unassigned) [Compound 419] | – | % Inhibition of T cell blast formation [3]: 86%
COc1ccccc1C(O)c1ccc(NC(=O)C2CC(c3cccnc3)=NO2)cc1 (stereo not shown) [Compound 409] | – | % Inhibition of T cell blast formation [1]: 88%
O=C(c1ccc(F)cc1)c1ccc(NC(=O)C2CC(c3cccnc3)=NO2)cc1 (stereo not shown) [Compound 13] | 78 | –
O=C(Nc1ccc(C(=NO)c2ccc(F)cc2F)cc1)C1CC(c2cccnc2)=NO1 (stereo not shown) [Compound 435] | – | % Inhibition of T cell blast formation [3]: 81%
O=C(Nc1ccc(C(Nc2ccc3[nH]nnc3c2)c2ccccc2)cc1)C1CC(c2cccnc2)=NO1 (stereo not shown) [Compound 96] | 39 | –
O=C(/C=C/c1c(F)cccc1F)c1ccc(NC(=O)C2CC(c3cccnc3)=NO2)cc1 (racemic) [Compound 468] | – | % Inhibition of T cell blast formation [1]: 61%
Cc1ccc(CNC(=O)c2ccc(NC(=O)C3CC(c4cccnc4)=NO3)cc2)cc1 (stereo not shown) [Compound 273] | 62 | –
CCCCOC(c1ccccc1)c1ccc(NC(=O)C2CC(c3cccnc3)=NO2)cc1.Cl (stereo not shown) [Compound 417] | 42 | –
O=C(NCc1ccccc1Br)c1ccc(NC(=O)C2CC(c3cccnc3)=NO2)cc1 (stereo not shown) [Compound 269] | 67 | –
CC(C)NC(c1ccccc1)c1ccc(NC(=O)C2CC(c3cccnc3)=NO2)cc1 (stereo not shown) [Compound 100] | 35 | –
O=C(Nc1cccc2ccccc12)c1ccc(NC(=O)C2CC(c3cccnc3)=NO2)cc1 (stereo not shown) [Compound 266] | – | % Inhibition of T cell blast formation [4]: 85%
C=CCOc1ccccc1/C=C/C(=O)c1ccc(NC(=O)C2CC(c3cccnc3)=NO2)cc1 (racemic) [Compound 470] | 87 | –
CCOC(=O)NC(c1ccccc1)c1ccc(NC(=O)C2CC(c3cccnc3)=NO2)cc1 (stereo not shown) [Compound 131] | 95 | –
O=C(c1ccc(NC(=O)C2CC(c3cccnc3)=NO2)cc1)c1ccccn1 (single isomer, unassigned) [Compound 489] | – | % Inhibition of T cell blast formation [3]: 80%
CN1CCC(CNC(c2ccccc2)c2ccc(NC(=O)C3CC(c4cccnc4)=NO3)cc2)CC1 (stereo not shown) [Compound 103] | 82 | –
Cc1cccc(NC(c2ccccc2)c2ccc(NC(=O)C3CC(c4cccnc4)=NO3)cc2)c1C (stereo not shown) [Compound 175] | 42 | –
O=C(Nc1ccc(C(=NO)c2c(F)cccc2F)cc1)C1CC(c2cccnc2)=NO1 (stereo not shown) [Compound 431] | – | % Inhibition of T cell blast formation [1]: 71%
COC(C(N)=O)(c1ccccc1)c1ccc(NC(=O)C2CC(c3cccnc3)=NO2)cc1 (stereo not shown) [Compound 442] | 75 | –
O=C(Nc1ccc(-c2nc(-c3ccccc3)no2)cc1)C1CC(c2cccnc2)=NO1 (stereo not shown) [Compound 453] | 61 | –
O=C(Nc1ccc(C(c2ccccc2)N2CCOCC2)cc1)C1CC(c2cccnc2)=NO1 (stereo not shown) [Compound 221] | 63 | –
O=C(NC(c1ccccc1)c1ccc(NC(=O)C2CC(c3cccnc3)=NO2)cc1)c1c(F)cccc1F (stereo not shown) [Compound 158] | – | % Inhibition of T cell blast formation [1]: 64%
O=C(/C=C/c1ccccc1F)c1ccc(NC(=O)C2CC(c3cccnc3)=NO2)cc1 (racemic) [Compound 473] | – | % Inhibition of T cell blast formation [1]: 72%

SMILES | % Inhibition of T cell blast formation [2] [%] | also measured
COc1ccccc1C(=O)c1ccc(NC(=O)C2CC(c3cccnc3)=NO2)cc1 (stereo not shown) [Compound 390] | 85 | –
NC(=O)C(c1ccc(Cl)cc1Cl)c1ccc(NC(=O)C2CC(c3cccnc3)=NO2)cc1Cl (stereo not shown) [Compound 310] | – | % Inhibition of T cell blast formation [1]: 64%
O=C(Nc1ccc(C(=NO)c2cccc(OC(F)(F)F)c2)cc1)C1CC(c2cccnc2)=NO1 (stereo not shown) [Compound 430] | – | % Inhibition of T cell blast formation [1]: 67%
O=C(NCc1c(F)cccc1F)c1ccc(NC(=O)C2CC(c3cccnc3)=NO2)cc1 (stereo not shown) [Compound 279] | 74 | –
O=C(Nc1ccc(C(Nc2ccccc2O)c2ccccc2)cc1)C1CC(c2cccnc2)=NO1 (stereo not shown) [Compound 203] | 62 | –
O=C(c1ccncc1)c1ccc(NC(=O)C2CC(c3cccnc3)=NO2)cc1 (stereo not shown) [Compound 388] | – | % Inhibition of T cell blast formation [3]: 74%
C#CC(O)(c1ccccc1)c1ccc(NC(=O)C2CC(c3cccnc3)=NO2)cc1 (racemic) [Compound 69, [B(R)]±[B(S)]-4,5-dihydro-N-[4-(1-hydroxy-1-phenyl-2-propynyl)phenyl]-3-(3-pyridinyl)-5-isoxazolecarboxamide] | 73 | –
CON=C(c1ccccc1)c1ccc(NC(=O)C2CC(c3cccnc3)=NO2)cc1 (stereo not shown) [Compound 303] | 78 | –
Cc1cccc(C(=O)c2ccc(NC(=O)C3CC(c4cccnc4)=NO3)cc2)c1 (stereo not shown) [Compound 10] | 75 | –
NC(=O)C(c1ccc(Cl)cc1)c1ccc(NC(=O)C2CC(c3cccnc3)=NO2)cc1Cl (stereo not shown) [Compound 309] | 92 | –
O=C(Cc1ccc(NC(=O)C2CC(c3cccnc3)=NO2)cc1)Nc1ccccc1 (stereo not shown) [Compound 451] | – | % Inhibition of T cell blast formation [1]: 80%
COc1ccc(CNC(=O)c2ccc(NC(=O)C3CC(c4cccnc4)=NO3)cc2)c(OC)c1 (stereo not shown) [Compound 274] | 71 | –
O=C(Nc1ccc(Sc2ccccc2)cc1)C1CC(c2cccnc2)=NO1 (stereo not shown) [Compound 374] | – | % Inhibition of T cell blast formation [4]: 85%
COc1ccc(C(=NO)c2ccc(NC(=O)C3CC(c4cccnc4)=NO3)cc2)c(OC)c1 (stereo not shown) [Compound 438] | – | % Inhibition of T cell blast formation [3]: 82%
O=C(Nc1ccc(Nc2ccc(S(=O)(=O)C(F)(F)F)cc2)cc1)C1CC(c2cccnc2)=NO1 (stereo not shown) [Compound 376] | – | % Inhibition of T cell blast formation [1]: 69%
O=C(NCc1ccc(F)cc1)c1ccc(NC(=O)C2CC(c3cccnc3)=NO2)cc1 (stereo not shown) [Compound 270] | 71 | –
CN1CCC(NC(c2ccccc2)c2ccc(NC(=O)C3CC(c4cccnc4)=NO3)cc2)CC1 (stereo not shown) [Compound 102] | 66 | –
O=C(Nc1ccc(C(=NO)c2cnc3ccccc3c2)cc1)C1CC(c2cccnc2)=NO1 (stereo not shown) [Compound 432] | 65 | –
COC(c1ccccc1)c1ccc(NC(=O)C2CC(c3cccnc3)=NO2)cc1.Cl (stereo not shown) [Compound 52] | 89 | –
CC(C#N)(c1ccccc1)c1ccc(NC(=O)C2CC(c3cccnc3)=NO2)cc1 (stereo not shown) [Compound 45] | 78 | –
O=C(Nc1ccc(C(Nc2ccccn2)c2ccccc2)cc1)C1CC(c2cccnc2)=NO1 (stereo not shown) [Compound 99] | 83 | –
CC(=O)OCC(C#N)(c1ccccc1)c1ccc(NC(=O)C2CC(c3cccnc3)=NO2)cc1 (stereo not shown) [Compound 413] | 85 | –
O=C(Nc1ccc(C(=O)N2CCC(O)(Cc3ccccc3)CC2)cc1)C1CC(c2cccnc2)=NO1 (stereo not shown) [Compound 304] | – | % Inhibition of T cell blast formation [1]: 36%
O=C(c1ccc(NC(=O)C2CC(c3cccnc3)=NO2)cc1)c1ccc(F)cc1F (stereo not shown) [Compound 398] | 87 | –
